Measured values: ChEMBL document CHEMBL1138722, “3-(2-Methoxytetrahydrofuran-2-yl)pyrazoles: a novel class of potent, selective cyclooxygenase-2 (COX-2) inhibitors” (Bioorg Med Chem Lett, 2004)

Legend:
[1] = molecular target: T1, Prostaglandin G/H synthase 2 (Homo sapiens) (UniProt P35354); settings: Blood, at 1 µM
T1 sequence (whole entry): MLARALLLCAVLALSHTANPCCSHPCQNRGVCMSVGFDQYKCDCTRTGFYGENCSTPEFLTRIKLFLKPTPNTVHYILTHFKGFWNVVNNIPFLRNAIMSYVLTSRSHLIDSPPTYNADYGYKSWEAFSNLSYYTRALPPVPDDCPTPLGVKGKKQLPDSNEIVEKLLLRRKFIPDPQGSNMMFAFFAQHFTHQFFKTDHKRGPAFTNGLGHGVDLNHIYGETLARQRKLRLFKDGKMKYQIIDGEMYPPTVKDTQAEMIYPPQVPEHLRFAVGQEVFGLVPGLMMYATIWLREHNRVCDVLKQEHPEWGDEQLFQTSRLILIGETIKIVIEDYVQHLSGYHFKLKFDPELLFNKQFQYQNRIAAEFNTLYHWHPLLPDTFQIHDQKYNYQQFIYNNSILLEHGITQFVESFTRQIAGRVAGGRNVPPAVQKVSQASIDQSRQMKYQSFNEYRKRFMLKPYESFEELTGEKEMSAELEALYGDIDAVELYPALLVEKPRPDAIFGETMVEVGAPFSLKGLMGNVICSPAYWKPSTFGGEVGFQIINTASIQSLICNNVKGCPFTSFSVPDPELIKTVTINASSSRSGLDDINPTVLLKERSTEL
Description: In vitro inhibition of Prostaglandin G/H synthase 2 in human whole blood at 1 uM

[2] = molecular target: T1, Prostaglandin G/H synthase 2 (Homo sapiens); settings: Blood, at 10 µM
Description: In vitro inhibition of Prostaglandin G/H synthase 2 in human whole blood at 10 uM

[3] = molecular target: T2, Prostaglandin G/H synthase 1 (Homo sapiens, UniProt P23219); experiment: In vitro inhibition of Prostaglandin G/H synthase 1 in human whole blood at 100 uM; format: tissue-based
[4] = molecular target: T2, Prostaglandin G/H synthase 1; experiment: In vitro inhibition of Prostaglandin G/H synthase 1 in human whole blood; format: tissue-based
[5] = molecular target: T3, Prostaglandin G/H synthase 2 (Homo sapiens, UniProt P35354); experiment: In vitro inhibition of Prostaglandin G/H synthase 2 in human whole blood; format: tissue-based
T3 sequence (P35354 whole entry): T1 sequence (whole entry)

T2 sequence (P23219 whole entry): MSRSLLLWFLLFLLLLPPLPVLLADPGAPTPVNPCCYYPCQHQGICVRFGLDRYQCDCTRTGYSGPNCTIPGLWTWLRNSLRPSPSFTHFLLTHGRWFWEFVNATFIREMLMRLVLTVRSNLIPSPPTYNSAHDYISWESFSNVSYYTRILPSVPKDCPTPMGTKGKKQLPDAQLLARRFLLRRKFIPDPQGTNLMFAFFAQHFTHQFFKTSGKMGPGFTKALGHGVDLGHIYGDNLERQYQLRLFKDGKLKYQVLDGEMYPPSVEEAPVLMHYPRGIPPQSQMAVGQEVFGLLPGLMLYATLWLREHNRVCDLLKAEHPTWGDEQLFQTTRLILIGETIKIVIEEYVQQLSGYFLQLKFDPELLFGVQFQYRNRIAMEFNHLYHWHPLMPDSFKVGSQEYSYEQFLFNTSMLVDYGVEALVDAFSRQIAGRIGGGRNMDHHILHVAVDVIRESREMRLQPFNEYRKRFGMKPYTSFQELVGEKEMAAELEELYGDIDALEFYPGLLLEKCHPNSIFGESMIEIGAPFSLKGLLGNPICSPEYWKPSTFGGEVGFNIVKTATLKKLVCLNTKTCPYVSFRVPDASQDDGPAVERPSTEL

| Compound | inhibition [1] [%] | inhibition [2] [%] | inhibition [3] [%] | IC50 [4] [nM] | IC50 [5] [nM] |
| --- | --- | --- | --- | --- | --- |
| COC1(c2cc(-c3ccc(S(C)(=O)=O)cc3)n(-c3ccc(C#N)cc3)n2)CCCO1 (stereo not drawn) | 30 | 25 | 0 | – | – |
| COC1(c2cc(-c3ccc(S(C)(=O)=O)cc3)n(-c3ccc(Cl)cc3)n2)CCCO1 (stereo not drawn) | 25 | 80 | 60 | – | – |
| COC1(c2cc(-c3ccc(S(C)(=O)=O)cc3)n(-c3ccc(C)cc3)n2)CCCO1 (stereo not drawn) | 55 | 90 | 55 | > 100000 | 1200 |
| COC1(c2cc(-c3ccc(S(C)(=O)=O)cc3)n(-c3ccc(Br)cc3)n2)CCCO1 (stereo not drawn) | 13 | 84 | 72 | – | – |
| COC1(c2cc(-c3ccc(S(C)(=O)=O)cc3)n(-c3ccc(F)cc3)n2)CCCO1 (stereo not drawn) | 40 | 75 | 25 | – | – |
| COC1(c2cc(-c3ccc(S(C)(=O)=O)cc3)n(-c3ccc(C(F)(F)F)cc3)n2)CCCO1 (stereo not drawn) | 25 | 70 | 50 | – | – |
| COC1(c2cc(-c3ccc(S(C)(=O)=O)cc3)n(-c3ccccc3)n2)CCCO1 (stereo not drawn) | 30 | 65 | 20 | – | – |
